This note sets out measurements from US11584763B2, “Chromenopyridine derivatives as phosphatidylinositol phosphate kinase inhibitors” (HIBERCELL, INC., priority 2017, dated 2023).

In assay [1] the target is T1, PIP4K2B (Homo sapiens, UniProt P78356).
T1 construct: made in house; host or cells: E. coli
T1 sequence (P78356 1-416): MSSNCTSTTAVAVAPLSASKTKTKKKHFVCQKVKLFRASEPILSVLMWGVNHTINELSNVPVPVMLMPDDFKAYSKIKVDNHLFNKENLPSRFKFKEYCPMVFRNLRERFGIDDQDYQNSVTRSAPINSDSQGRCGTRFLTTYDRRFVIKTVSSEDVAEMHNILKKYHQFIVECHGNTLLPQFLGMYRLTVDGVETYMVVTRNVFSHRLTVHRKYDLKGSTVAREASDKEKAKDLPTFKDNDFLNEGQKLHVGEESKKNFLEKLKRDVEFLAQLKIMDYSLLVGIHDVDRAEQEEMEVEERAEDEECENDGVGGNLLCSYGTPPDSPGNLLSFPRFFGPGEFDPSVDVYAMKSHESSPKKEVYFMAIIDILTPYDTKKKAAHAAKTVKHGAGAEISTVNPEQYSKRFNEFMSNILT
Description: Trans-FI P kinase assay PIP4K2B (PIP4KtypeIIB inhibition assay). Conditions: compounds listed under IC50 bin headings; 100 uM GTP; read-out: Trans-FI P kinase assays: PIP4K2B IC50. It is filed as biochemical. The source says: GST tagged PIP4KtypeIIA and B enzymes were overexpressed in E. Coli and purified to >80% homogeneity. Phosphatidyl inositol-5-phosphate (PI5P, Cat. #850152, Avanti Polar Lipids Inc.) was used as the lipid substrate and phosphatidyl ethanolamine (DOPE 18:1, Cat. #850725, Avanti Polar Lipids Inc.) was used as the carrier lipid for assays. Ultrapure ATP and GTP was purchased from Bellbrooke Labs. ADP Glo reagents were obtained from Promega. Transcreener FI reagent was obtained from Bellbrooke labs.
GST-tagged PIP4KtypeIIB (3.4 uL, 2.77 mg/mL) was diluted to 5 mL using HNE buffer to yield 5× enzyme stock (25 nM)
Lipid Preparation: In a 10 mL pyrex glass vial, 1 ug of PI5P and 1 ug of DOPE were suspended in 2.5 mL of HEPES buffer mix and 2.5 mL of H:E buffer. The contents were mixed and sonicated for 3 min to yield a translucent lipid stock.
Compound Preparation: Compounds were stored as 5 mM stocks in neat DMSO as room temperature in glass vials. 5 mM stocks were diluted to 2 mM and then serially diluted (3×) in neat DMSO in 96 well polypropylene plates. From the serially diluted stocks, 3 uL was delivered into 250 uL of 25% DMSO (in water) to generate 5× compound stocks. Typically, the highest compound conc. was 24 uM.
The assay volume was kept at 25 uL. To each well of the reaction plate, 10 uL of lipid stock (1:1 ratio PI5P:DOPE) was delivered. This was followed by the addition of 5 uL of compound in 25% DMSO. Then, to each well, 5 uL of 25 nM (5×) typeIIB enzyme was delivered. The contents were mixed well and incubated for 1 h at 27 C. After 1 h, reaction was initiated by adding 5 uL of 500 uM GTP and the contents were mixed well with a multi-channel pipetteman. The final concentration of the reagents are as follows: 50 mM HEPES, pH 7.3, 10 mM MgCl2, 20 mM NaCl, 0.01% v/v triton-X100, 5% DMSO, 100 uM GTP, 80 uM (2 ug) PI5P, 2 ug DOPE, and 5 nM PIP4KIIB Typically, the highest conc. of compounds was 4.8 uM and the lowest conc. was 0.
After 2 h, the reaction was quenched by adding 25 uL of transcreener FI reagent. The contents were incubated at RT for 1 h and the Fluorescence (Ex: 584 Em: 623) was read using Molecular Devices Paradigm plate reader. […] The blanks were averaged and subtracted from all other wells. Using a calibration curve, RFU was converted to uM GDP (product). IC50 was calculated by plotting the residual activity (expressed as % No inhibitor control) vs. log [Inh. conc.]

For assay [2], the target named is T2, PIP4K 2A (Homo sapiens, UniProt P48426).
T2 sequence (P48426 1-406): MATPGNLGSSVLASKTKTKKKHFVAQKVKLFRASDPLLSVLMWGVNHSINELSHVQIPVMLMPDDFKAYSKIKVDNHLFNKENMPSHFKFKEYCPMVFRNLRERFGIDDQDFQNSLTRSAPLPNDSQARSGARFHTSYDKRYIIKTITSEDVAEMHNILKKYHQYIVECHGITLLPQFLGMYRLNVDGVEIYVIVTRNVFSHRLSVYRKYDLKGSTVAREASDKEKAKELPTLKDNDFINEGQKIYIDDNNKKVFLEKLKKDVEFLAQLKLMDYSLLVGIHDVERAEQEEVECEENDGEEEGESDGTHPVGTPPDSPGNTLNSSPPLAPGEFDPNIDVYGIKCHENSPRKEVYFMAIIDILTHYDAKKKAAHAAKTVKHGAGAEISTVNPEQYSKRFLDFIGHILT
Description: ADP-glo kinase assay PIP4K 2A. The settings on record: compounds listed under IC50 bin headings. More on the design: 4 nM PIP4K2A (full length protein, SignalChem); purchased SignalChem. In kind it is biochemical. Here is the method:
Dilution series of the compounds were prepared in DMSO at 100 times the final assay concentration (n1=n0/3 in 10 points). The compounds were further diluted to three times the assay concentration in assay buffer (20 mM MOPS pH 7.2, 25 mM magnesium chloride, 0.005% Tween 20). 6 μL of the diluted compounds were added to a 384 well assay plate followed by 9 μL of a mix consisting of 4 nM PIP4K2A (full length protein, SignalChem) and 100 μM PI(5)P diC8 (Tebu-Bio). Enzyme and compounds were pre-incubated at room temperature for 15 minutes.
Then 3 μL of a solution containing 60 μM ATP (Promega) in assay buffer was added to the wells containing compound and enzyme and mixing was performed by pipetting several times. The reaction was incubated at room temperature for 1 h. Then 18 μL of ADP-Glo™ Reagent (Promega) was added to stop the kinase reaction and deplete the unconsumed ATP, mixing was performed by pipetting several times. The plate was incubated at room temperature for 40 minutes before addition of 36 μL of Kinase Detection Reagent (Promega) to convert ADP to ATP and introduce luciferase and luciferin to detect ATP. The reaction was incubated at room temperature for 40 minutes before the luminescence was measured in a in a Victor 3V 1420 multilabel counter (Perkin Elmer).
Percent inhibition of the compounds as compared to dimethyl sulfoxide treated control samples was calculated. Compound concentration versus percent inhibition were fitted to generate IC50 values.

`CC1Oc2cc(N3CCCC3=O)ccc2-c2cnc(Nc3cncc(NC(=O)c4ccnc(N)c4)c3)cc21` (stereo not drawn) [Example 115, 2-amino-N-(5-((5-methyl-8-(2-oxopyrrolidin-1-yl)-5H-chromeno[4,3-c]pyridin-3-yl)amino)pyridin-3-yl)isonicotinamide]: the IC50 in assay [1] is 1 to 10 nM; in assay [2], at most 1 nM.

Turning to `CC1Oc2cc(N3CCCC3=O)ccc2-c2cnc(Nc3cncc(NC(=O)c4ccc5c(c4)COB5O)c3)cc21` (stereo not drawn) [Example 116, 1-hydroxy-N-(5-((5-methyl-8-(2-oxopyrrolidin-1-yl)-5H-chromeno[4,3-c]pyridin-3-yl)amino)pyridin-3-yl)-1,3-dihydrobenzo[c][1,2]oxaborole-5-carboxamide], the IC50 in assay [1] is 10 to 100 nM; in assay [2], at most 1 nM.

Consider `CC1Oc2cc(N3CCCC3=O)ccc2-c2cnc(Nc3cncc(NC(=O)c4ccc5c(c4)B(O)OC5)c3)cc21` (stereo not drawn) [Example 117, 1-hydroxy-N-(5-((5-methyl-8-(2-oxopyrrolidin-1-yl)-5H-chromeno[4,3-c]pyridin-3-yl)amino)pyridin-3-yl)-1,3-dihydrobenzo[c][1,2]oxaborole-6-carboxamide], for which the IC50 in assay [1] is 10 to 100 nM; in assay [2] it was 1 to 10 nM.

On to `CC1Oc2cc(N3CCCC3=O)ccc2-c2cnc(Nc3cncc(NC(=O)c4cccc5c4COB5O)c3)cc21` (stereo not drawn) [Example 118, 1-hydroxy-N-(5-((5-methyl-8-(2-oxopyrrolidin-1-yl)-5H-chromeno[4,3-c]pyridin-3-yl)amino)pyridin-3-yl)-1,3-dihydrobenzo[c][1,2]oxaborole-4-carboxamide], for which the IC50 lay in the range of 10 to 100 nM in assay [1] and 1 to 10 nM in assay [2].

Consider `CC1Oc2cc(N3CCCC3=O)ccc2-c2cnc(Nc3cncc(NC(=O)c4ccc(F)cc4)c3)cc21` (stereo not drawn) [Example 119, 4-fluoro-N-(5-((5-methyl-8-(2-oxopyrrolidin-1-yl)-5H-chromeno[4,3-c]pyridin-3-yl)amino)pyridin-3-yl)benzamide], for which the concentration for half-maximal inhibition (IC50) in assay [1] and in assay [2] was 10 to 100 nM in each case.

For `CC1Oc2cc(N3CCCC3=O)ccc2-c2cnc(Nc3cncc(NC(=O)c4cccc(F)c4)c3)cc21` (stereo not drawn) [Example 120, 3-fluoro-N-(5-((5-methyl-8-(2-oxopyrrolidin-1-yl)-5H-chromeno[4,3-c]pyridin-3-yl)amino)pyridin-3-yl)benzamide], the values for the concentration for half-maximal inhibition (IC50) in assay [1] and in assay [2] were over 1000 nM and 1 to 10 nM, respectively.

Take `COc1cccc(C(=O)Nc2cncc(Nc3cc4c(cn3)-c3ccc(N5CCCC5=O)cc3OC4C)c2)c1` (stereo not drawn) [Example 121, 3-methoxy-N-(5-((5-methyl-8-(2-oxopyrrolidin-1-yl)-5H-chromeno[4,3-c]pyridin-3-yl)amino)pyridin-3-yl)benzamide]: the IC50 was 1 to 10 nM in assay [1] and at most 1 nM in assay [2].

`COc1ccc(C(=O)Nc2cncc(Nc3cc4c(cn3)-c3ccc(N5CCCC5=O)cc3OC4C)c2)cc1` (stereo not drawn) [Example 122, 4-methoxy-N-(5-((5-methyl-8-(2-oxopyrrolidin-1-yl)-5H-chromeno[4,3-c]pyridin-3-yl)amino)pyridin-3-yl)benzamide]: the IC50 in assay [1] is 10 to 100 nM; in assay [2], 1 to 10 nM.

Take `CC1Oc2cc(N3CCCC3=O)ccc2-c2cnc(Nc3cncc(NC(=O)c4cccc5[nH]ccc45)c3)cc21` (stereo not drawn) [Example 123, N-(5-((5-methyl-8-(2-oxopyrrolidin-1-yl)-5H-chromeno[4,3-c]pyridin-3-yl)amino)pyridin-3-yl)-1H-indole-4-carboxamide]: the IC50 in assay [1] and in assay [2] was 1 to 10 nM in each case.

In the case of `CC1Oc2cc(N3CCCC3=O)ccc2-c2cnc(Nc3cncc(NC(=O)c4ccnnc4)c3)cc21` (stereo not drawn) [Example 125, N-(5-((5-methyl-8-(2-oxopyrrolidin-1-yl)-5H-chromeno[4,3-c]pyridin-3-yl)amino)pyridin-3-yl)pyridazine-4-carboxamide], the IC50 was in the range of 10 to 100 nM in assay [1] and 1 to 10 nM in assay [2].

For `CC1Oc2cc(N3CCCC3=O)ccc2-c2cnc(Nc3cncc(NC(=O)c4cncc(N)n4)c3)cc21` (stereo not drawn) [Example 126, 6-amino-N-(5-((5-methyl-8-(2-oxopyrrolidin-1-yl)-5H-chromeno[4,3-c]pyridin-3-yl)amino)pyridin-3-yl)pyrazine-2-carboxamide], the IC50 was 10 to 100 nM in assay [1] and 1 to 10 nM in assay [2].

Regarding `CC(=O)Nc1cc(Nc2cc3c(cn2)-c2ccc(N4CCCC4=O)cc2OC3C)cnn1` (stereo not drawn) [Example 129, N-(5-((5-methyl-8-(2-oxopyrrolidin-1-yl)-5H-chromeno[4,3-c]pyridin-3-yl)amino)pyridazin-3-yl)acetamide], the IC50 is 10 to 100 nM in assay [1] and 1 to 10 nM in assay [2].

As for `CC(CC(=O)Nc1cncc(Nc2cc3c(cn2)-c2ccc(N4CCCC4=O)cc2OC3C)c1)c1ccccc1` (stereo not drawn) [Example 132, N-(5-((5-methyl-8-(2-oxopyrrolidin-1-yl)-5H-chromeno[4,3-c]pyridin-3-yl)amino)pyridin-3-yl)-3-phenylbutanamide], the values for the IC50 in assay [1] and in assay [2] were 10 to 100 nM and 1 to 10 nM, respectively.

For the compound `CC(Cc1ccccc1)C(=O)Nc1cncc(Nc2cc3c(cn2)-c2ccc(N4CCCC4=O)cc2OC3C)c1` (stereo not drawn) [Example 133, 2-methyl-N-(5-((5-methyl-8-(2-oxopyrrolidin-1-yl)-5H-chromeno[4,3-c]pyridin-3-yl)amino)pyridin-3-yl)-3-phenylpropanamide], the IC50 in assay [1] fell in the range of 10 to 100 nM; in assay [2], 1 to 10 nM.

For the compound `CC1Oc2cc(N3CCCC3=O)ccc2-c2cnc(Nc3cncc(NC(=O)C(O)Cc4ccccc4)c3)cc21` (stereo not drawn) [Example 134, 2-hydroxy-N-(5-((5-methyl-8-(2-oxopyrrolidin-1-yl)-5H-chromeno[4,3-c]pyridin-3-yl)amino)pyridin-3-yl)-3-phenylpropanamide], the IC50 in assay [1] lay within 10 to 100 nM; in assay [2], 1 to 10 nM.
